Results on 6 molecules are retold here after patent US10898504B2, “Substituted nucleoside analogues for use as PRMT5 inhibitors” (Janssen Pharmaceutica NV, priority 2016, dated 2021).

Values joined by “and” are separate entries in the source; they are usually repeats but may differ in a detail not shown here. Equal entries are not always repeated. Where only a bound is given, the exact number is not on record here.

For one assay, the target named is T1, PRMT5-MEP50 enzyme (Homo sapiens, UniProt O14744).
T1 construct: One virus expresses full length human PRMT5 with Flag-tag at N-terminus
T1 sequence (O14744 whole entry): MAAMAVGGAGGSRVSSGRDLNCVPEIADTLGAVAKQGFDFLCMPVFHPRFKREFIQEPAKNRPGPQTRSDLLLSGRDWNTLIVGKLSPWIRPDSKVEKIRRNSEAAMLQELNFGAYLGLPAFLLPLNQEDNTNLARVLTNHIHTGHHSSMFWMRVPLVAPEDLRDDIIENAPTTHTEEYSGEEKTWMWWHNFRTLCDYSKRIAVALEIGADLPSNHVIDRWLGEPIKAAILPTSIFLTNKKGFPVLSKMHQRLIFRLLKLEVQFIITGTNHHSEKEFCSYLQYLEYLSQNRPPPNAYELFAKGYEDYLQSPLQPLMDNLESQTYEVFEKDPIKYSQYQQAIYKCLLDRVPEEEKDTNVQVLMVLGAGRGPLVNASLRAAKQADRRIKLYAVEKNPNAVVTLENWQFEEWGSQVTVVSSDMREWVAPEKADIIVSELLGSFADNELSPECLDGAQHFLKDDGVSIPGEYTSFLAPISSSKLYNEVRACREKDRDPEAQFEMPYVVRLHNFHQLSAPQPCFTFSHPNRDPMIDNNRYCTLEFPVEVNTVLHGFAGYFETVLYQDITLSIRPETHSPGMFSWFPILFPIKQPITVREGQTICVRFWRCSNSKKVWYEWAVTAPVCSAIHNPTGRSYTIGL
T1 sequence (Q9BQA1 whole entry partner): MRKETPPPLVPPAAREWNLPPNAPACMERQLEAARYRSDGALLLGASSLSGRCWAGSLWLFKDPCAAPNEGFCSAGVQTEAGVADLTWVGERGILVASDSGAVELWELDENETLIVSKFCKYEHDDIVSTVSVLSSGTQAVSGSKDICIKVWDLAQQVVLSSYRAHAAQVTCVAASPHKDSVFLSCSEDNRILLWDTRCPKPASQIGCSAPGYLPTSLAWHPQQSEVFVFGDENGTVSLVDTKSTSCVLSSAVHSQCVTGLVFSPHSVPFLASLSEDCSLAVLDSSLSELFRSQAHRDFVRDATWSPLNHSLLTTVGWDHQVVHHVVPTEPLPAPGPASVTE
Briefly: In vitro assay (Assay 1): PRMT5-MEP50 high throughput mass spectrometer assay, inhibition of SAH formation. Type of assay: biochemical. The note with it: individual measurements shown, read-out: pIC50 Assay 1 (converted). An outline of the steps: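 Flag-PRMT5/His-MEP50 full-length human complex (Sf9-expressed), 10 nM, with 1 μM SAM and 0.3 μM histone H2A in 20 mM Tris-HCl pH 8.5, 50 mM NaCl, 5 mM MgCl2, 1 mM DTT; 60 min at 30 °C, quenched with 1% formic acid. SAH quantified by RapidFire MS; IC50 from 11-point 1:2 series fitted to four-parameter Hill equation.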

In a further assay the test system is A549 cells. As to the kind of experiment: PD assay (Assay 2): inhibition of nuclear symmetric Arginine dimethylation (SYM10 immunohistochemistry) in A549 cells. Format: cell-based. The following applies: Homo sapiens, A549, PD assay in A549 cells, individual measurements shown, read-out: pIC50 Assay 2 (converted). An outline of the steps:
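A549 cells dosed with a nine-point series (0.2% DMSO) for 48 h at 37° C, then fixed and immunostained with SYM10 anti-symmetric-dimethylarginine antibody, plus Hoechst and CellMask counterstains for high-content imaging. Nuclear signal normalized between DMSO and 10 μM reference-compound controls to derive IC50/pIC50.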

In another assay the target is PRMT5 (Homo sapiens, UniProt O14744). The following applies: Chan-Penebre et al., Nat Chem Biol 2015; cited from earlier work.
Chain of PRMT5 (O14744 whole entry, species assumed): as the sequence (O14744 whole entry) above
Chain of PRMT5 (Q9BQA1 whole entry partner, species assumed): as the sequence (Q9BQA1 whole entry partner) above
In a further assay the test system is MCL xenograft models. The note with it: multiple MCL xenograft models; Chan-Penebre et al., Nat Chem Biol 2015; cited from earlier work.

As to `CCNc1ncnc2c1ccn2[C@@H]1O[C@H](CN2CCCC23CCN(C)CC3)[C@@H](O)[C@H]1O` [Compound 205], the IC50 is 1620 nM at PRMT5-MEP50 enzyme and 7080 nM with A549 cells.
Turning to `CN1CCC2(CCC=C2C[C@H]2C[C@@H](n3ccc4c(N)ncnc43)[C@H](O)[C@@H]2O)CC1` [Compound 206], the values for the IC50 on PRMT5-MEP50 enzyme and with A549 cells were 5.13 nM and 64.6 nM, respectively.
The corresponding values for `CN1CCC2(CCC/C2=C\[C@H]2C[C@@H](n3ccc4c(N)ncnc43)[C@H](O)[C@@H]2O)CC1` [Compound 207] are 5.01 nM and 52.5 nM.
Regarding `CN1CCC2(CCCN2C[C@H]2O[C@@H](n3ccc4c(Cl)ncnc43)[C@H](O)[C@@H]2O)CC1` [Compound 208], the IC50 on PRMT5-MEP50 enzyme is 75.9 nM; in the assay on A549 cells, 490 nM.
In the case of `O[C@@H]1[C@H](O)[C@@H](CN2CCCC23CCNCC3)O[C@H]1n1cnc2c(NC3CC3)ncnc21` [Compound 270], the IC50 on PRMT5-MEP50 enzyme was 4680 nM and 4270 nM and 3470 nM; in the assay on A549 cells it was > 10000 nM.
Consider `O=C(NC[C@H](O)CN1CCc2ccccc2C1)c1cc(NC2COC2)ncn1` [EPZ015666], for which the “potency as PRMT5 inhibitor” value on PRMT5 was “sub-nanomolar potent”. The anti-tumour activity entry in the assay with MCL xenograft models was “anti-tumour activity”.
